The record followed here is ChEMBL document CHEMBL6177956, “Discovery of first-in-class human glycolate oxidase near infrared molecular rotor inhibitors (NIRGOi)” (Eur J Med Chem, 2025).

Experiment [1] addresses T1, 2-Hydroxyacid oxidase 2 (Rattus norvegicus, UniProt Q07523).
T1 sequence (Q07523 whole entry): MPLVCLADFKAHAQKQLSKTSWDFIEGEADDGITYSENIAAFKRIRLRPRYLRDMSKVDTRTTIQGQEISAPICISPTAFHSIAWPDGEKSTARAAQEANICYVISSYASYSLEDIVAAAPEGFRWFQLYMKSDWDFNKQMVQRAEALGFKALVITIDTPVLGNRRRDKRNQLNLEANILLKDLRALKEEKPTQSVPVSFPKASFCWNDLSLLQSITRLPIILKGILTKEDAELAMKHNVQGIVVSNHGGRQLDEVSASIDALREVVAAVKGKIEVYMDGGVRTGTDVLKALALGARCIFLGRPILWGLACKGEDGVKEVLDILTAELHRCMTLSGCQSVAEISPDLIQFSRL
Kind of experiment: Binding affinity to rat LCHAO by Amplex Red reagent based fluorescence analysis. It counts as toxicity.

Experiment [2] addresses T1, 2-Hydroxyacid oxidase 2. Briefly: Inhibition of rat LCHAO using 2-hydroxyoctanoate as substrate incubated for 30 mins by Amplex Red reagent based fluorometric analysis. It counts as toxicity.

`CC1(C)C(/C=C/c2ccc(O)c(C(=O)O)c2)=[N+](CCC(=O)O)c2ccc3ccccc3c21`: in experiment [1], the Kd came out at 3.2 µM. In addition, the IC50 in experiment [2] came to 36.7 µM.
Taken in the same sequence, the figures for `O=C(O)c1cc(/C=C/C2=CC(=C3C(=O)c4ccccc4C3=O)c3ccccc3O2)ccc1O` were 462 µM and 248 µM.
For the compound `N#CC(C#N)=C1C=C(/C=C/c2ccc(O)c(C(=O)O)c2)Oc2ccccc21`, the Kd in experiment [1] was more than 1000 µM. This compound came in with an IC50 in experiment [2] of more than 500 µM.

A word on the Kd: it is a measure of binding affinity in units of concentration. A higher Kd goes with lower affinity. By IC50 is commonly meant the concentration at which inhibition is half-maximal. Higher therefore signals a need for much substance.
